Measurements from patent publication US6417216B1 (priority 2000, dated 2002).

Tested on: Phytophthora infestans
Type: in vivo
Conditions: neighbouring plot, mancozeb at 1600 g/ha

## mancozeb
  efficacy, compared with the composition of compounds (I) and (II): about one-half
